Experimental data as given in patent publication US20250171457A1, “NITROGEN-CONTAINING HETEROCYCLIC COMPOUND HAVING NRF2 ACTIVATION EFFECT” (CHUGAI SEIYAKU KABUSHIKI KAISHA, priority 2022, published 2025).
Like-named read-outs stand apart in the source and are kept apart here.

Tests used:
[1] = test system: Nqo1 (NAD(P)H quinone dehydrogenase 1) mRNA, Nrf2 downstream molecule; assay: In vivo Nrf2 transcriptional activity measurement (Nqo1 mRNA in organs by qPCR); details: Mus musculus, C57BL/6J mice, Oral, 30 mg/kg, 7 to 8 hours
Description: Test Example 2: In Vivo Nrf2 Transcriptional Activity Measurement
A test compound (solvent: 10 vol % dimethyl sulfoxide/50 mM glycine/32 mM sodium hydroxide/physiological saline) was administered to C57BL/6J mice (7-8 weeks old), which were euthanized by whole blood collection under isoflurane anesthesia 7 to 8 hours later, followed by the collection of various organs. mRNA was purified from the collected organs, and the mRNA expression level of Mapk1 as an internal control and the mRNA expression level of Nqo1 (NAD(P)H quinone dehydrogenase 1) as a typical Nrf2 downstream molecule were each measured by qPCR. The Nqo1 mRNA expression level was quantified by comparative CT, and an expression level ratio to a non-administration group was calculated. The administration of the test compound elevated the Nqo1 mRNA expression level in the various organs, confirming that the test compound also has a Nrf2-activating effect in vivo.

[2] = test system: Nrf2 transcriptional activity (pARE-Luc reporter) in HepG2 cells; assay: In vitro Nrf2 transcriptional activity measurement by ARE-dependent reporter assay in HepG2 cell; format: cell-based, human; details: HepG2 cells transfected with pARE-Luc, 4 hours at 37° C., luciferase activity of Example 1-54 or Example 17-23 at 3.75 μM defined as 100%
Outline: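 Luminescence readout (Bright-Glo) after 4 h, 37° C compound exposure of HepG2 cells carrying the ARE-luciferase vector pGL4.37. Each well converted to % response versus reference compound at 3.75 μM, and EC50 derived from dose-response curves.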

[3] = kidney, read-out: Nqo1 mRNA expression level ratio to non-administration group, Kidney
[4] = liver, read-out: Nqo1 mRNA expression level ratio to non-administration group, Liver
[5] = lung, read-out: Nqo1 mRNA expression level ratio to non-administration group, Lung

EC50 ([2]; Homo sapiens) [nM] | Structure (SMILES) | fold induction at 30 mg/kg [1, 3] | fold induction at 30 mg/kg [1, 4] | fold induction at 30 mg/kg [1, 5] | EC50 ([2]; second printing of Table 20-1) [nM]
– | C[C@@H]1CN(c2ccc(C(=O)N3COc4c(cccc4-c4cc(N5C6CCC5COC6)c(C(=O)O)cc4F)C3)c(Cl)c2)[C@H](C)CN1C [Compound 13-21, 4-[3-[2-Chloro-4-[(2R,5R)-2,4,5-trimethylpiperazin-1-yl]benzoyl]-2,4-dihydro-1,3-benzoxazin-8-yl]-5-fluoro-2-(3-oxa-8-azabicyclo[3.2.1]octan-8-yl)benzoic acid] | 2.9 | 4.9 | 3.6 | 2.3
3.2 | Cn1cc(-c2cc(Cl)c(C(=O)N3COc4c(cccc4-c4ccc(C(=O)O)c(N5CCOCC5)c4)C3)c(Cl)c2)cn1 [Compound 14-1, 4-[3-[2,6-Dichloro-4-(1-methylpyrazol-4-yl)benzoyl]-2,4-dihydro-1,3-benzoxazin-8-yl]-2-morpholin-4-ylbenzoic acid] | 5.7 | 4.2 | 17 | –
